Values after ≈ are worked out from the molar mass of the structure shown. Where two headings read alike, the source gives them in different places.
Legend:
E. Coli KC-14 [1] = assay: Therapeutic effect on infections in mice (Table 3); assay type: in vivo, ddY strain male mice; conditions: E. coli KC-14, 5.1×10^4 CFU/mouse i.p.; drug orally once 2 hours after inoculation; survival after one week, Probit
Procedure: (§1) Test method: E. Coli KC-14 and P. aeruginosa E-2 were suspended in 5% mucin and 0.5 ml of the suspension was injected intraperitoneally to ddY strain male mice (body weight: ca. 20 g; four weeks age; 10 mice per group). The amount of the bacteria inoculated was 5.1×10^4 CFU/mouse for E. coli and 7.5×10^4 CFU/mouse for P. aeruginosa. Drug was given orally once after 2 hours of inoculation and, out of the survival rate after one week, ED50 was calculated by a Probit method. As to a comparison/control, ofloxacin was used.

P. aeruginosa E-2 [2] = assay: Therapeutic effect on infections in mice (Table 3); assay type: in vivo, ddY strain male mice; conditions: P. aeruginosa E-2, 7.5×10^4 CFU/mouse i.p.; drug orally once 2 hours after inoculation; survival after one week, Probit
Procedure: as §1

[3] = test system: Pseudomonas aeruginosa IFO-3445; assay: MIC, agar plate dilution method; assay type: cell-based
Procedure: (§2) Test Method: In accordance with a standard method by Japan Chemotherapeutic Society [Chemotherapy, 29(1), pages 76-79, 1981], agar plate dilution method was used and the MIC was measured. Thus, bouillon for measuring sensitivity was used and the bacterial liquid cultured at 37° C. for 18 hours was diluted to an extent of 10^6 CFU/ml using said medium. This was inoculated to an agar medium containing drug for measuring sensitivity using a microplanter, cultured at 37° C. for 18 hours, and MIC was measured. Ofloxacin was used for comparison/control.
(§3) The above described test was additionally conducted on the compounds of the examples described below using the same microorganisms.

[4] = test system: Staphylococcus aureus 209-P JC-1; assay: MIC, agar plate dilution method; assay type: cell-based
Procedure: as §2, §3

[5] = test system: Bacillus subtilis ATCC 6633; assay: MIC, agar plate dilution method; assay type: cell-based
Procedure: as §2, §3

[6] = test system: Streptococcus pyogenes S-23; assay: MIC, agar plate dilution method; assay type: cell-based
Procedure: as §2, §3

[7] = test system: Serratia marcescens IFO 3736; assay: MIC, agar plate dilution method; assay type: cell-based
Procedure: as §2, §3

[8] = test system: Shigella flexneri 2a EW-10; assay: MIC, agar plate dilution method; assay type: cell-based
Procedure: as §2, §3

[9] = test system: Klebsiella pneumoniae NCTC 9632; assay: MIC, agar plate dilution method; assay type: cell-based
Procedure: as §2, §3

[10] = test system: Proteus mirabilis IFO 3849; assay: MIC, agar plate dilution method; assay type: cell-based; conditions: IFO3849, Table 1, 10^6 CFU/ml, 37° C., 18 hours
Procedure: as §2, §3

[11] = test system: Streptococcus pneumoniae Type I; assay: MIC, agar plate dilution method; assay type: cell-based
Procedure: as §2, §3

[12] = test system: Escherichia coli N1HJ JC-2; assay: MIC, agar plate dilution method; assay type: cell-based
Procedure: as §2, §3

E. Coli KC-14 [13] = assay: Therapeutic effect on infections in mice, similar test (Table 4); assay type: in vivo, ddY strain male mice; conditions: E. coli KC-14, 2.5×10^5 cfu/mouse
Procedure: as §1
(§4) A similar test was conducted by inoculating E. coli KC-14 (2.5×10^5 cfu/mouse) and P. aeruginosa E-2 (1.25×10^5 cfu/mouse) and the result is given in Table 4.

P. aeruginosa E-2 [14] = assay: as above; assay type: in vivo, ddY strain male mice; conditions: P. aeruginosa E-2, 1.25×10^5 cfu/mouse
Procedure: as §1, §4

[15] = IFO3445, Table 1, 10^6 CFU/ml, 37° C., 18 hours
[16] = Table 1, 10^6 CFU/ml, 37° C., 18 hours
[17] = ATCC6633, Table 1, 10^6 CFU/ml, 37° C., 18 hours
[18] = S23, Table 1, 10^6 CFU/ml, 37° C., 18 hours
[19] = IFO3736, Table 1, 10^6 CFU/ml, 37° C., 18 hours
[20] = 2AEW10, Table 1, 10^6 CFU/ml, 37° C., 18 hours
[21] = NCTC9632, Table 1, 10^6 CFU/ml, 37° C., 18 hours
[22] = IFO3445, 18 h, Table 2, same microorganisms as Table 1
[23] = 18 h, Table 2, same microorganisms as Table 1
[24] = ATCC6633, 18 h, Table 2, same microorganisms as Table 1
[25] = IFO3736, 18 h, Table 2, same microorganisms as Table 1
[26] = 2AEW10, 18 h, Table 2, same microorganisms as Table 1
[27] = NCTC9632, 18 h, Table 2, same microorganisms as Table 1
[28] = N1HJJC2, 18 h, Table 2, same microorganisms as Table 1, read-out: MIC

SMILES	ED50 (E. Coli KC-14 [1])	ED50 (P. aeruginosa E-2 [2])	ED50 (E. Coli KC-14 [13])	ED50 (P. aeruginosa E-2 [14])	MIC [3, 22]	MIC [4, 23]	MIC [5, 24]	MIC [7, 25]	MIC [8, 26]	MIC [9, 27]	MIC [12, 28]	also measured
CC1COc2c(N3CCN(C)CC3)c(F)cc3c(=O)c(C(=O)O)cn1c23 (racemic) [Ofloxacin, ofloxacin, reference compound]	0.011 mg/mouse	0.692 mg/mouse	0.052 mg/mouse	0.521 mg/mouse	–	–	–	–	–	–	–	MIC [3, 15]: 1.56 µg/mL (≈ 4.32 µM); MIC [4, 16]: 0.39 µg/mL (≈ 1.08 µM); MIC [5, 17]: 0.1 µg/mL (≈ 0.277 µM); MIC [6, 18]: 1.56 µg/mL (≈ 4.32 µM); MIC [7, 19]: 0.78 µg/mL (≈ 2.16 µM); MIC [8, 20]: 0.025 µg/mL (≈ 0.0692 µM); MIC [9, 21]: 0.05 µg/mL (≈ 0.138 µM); MIC [10]: 0.39 µg/mL (≈ 1.08 µM); MIC [11, 16]: 1.56 µg/mL (≈ 4.32 µM); MIC ([12]; N1HJJC2, Table 1, 10^6 CFU/ml, 37° C., 18 hours, read-out: MIC): 0.1 µg/mL (≈ 0.277 µM)
CCOC(=O)c1c2n(c3c(F)c(N4CCNCC4)c(F)cc3c1=O)C(C)S2 (centres unmarked) [Example 1, Ethyl 6,8-difluoro-1-methyl-4-oxo-7-(1-piperazinyl)-4H-[1,3]thiazeto[3,2-a]quinoline-3-carboxyate]	0.0046 mg/mouse	0.09 mg/mouse	–	–	–	–	–	–	–	–	–	–
CC1Sc2c(C(=O)O)c(=O)c3cc(F)c(N4CCNCC4)c(F)c3n21 (centres unmarked) [Example 2, 6,8-Difluoro-1-methyl-4-oxo-7-(1-piperazinyl)-4H-[1,3]thiazeto[3,2-a]quinoline-3-carboxylic acid]	0.0078 mg/mouse	0.154 mg/mouse	0.013 mg/mouse	0.156 mg/mouse	–	–	–	–	–	–	–	MIC [3, 15]: 0.1 µg/mL (≈ 0.272 µM); MIC [4, 16]: 0.1 µg/mL (≈ 0.272 µM); MIC [5, 17]: 0.05 µg/mL (≈ 0.136 µM); MIC [6, 18]: 0.39 µg/mL (≈ 1.06 µM); MIC [7, 19]: 0.1 µg/mL (≈ 0.272 µM); MIC [8, 20]: ≤ 0.00625 µg/mL; MIC [9, 21]: 0.0125 µg/mL (≈ 0.034 µM); MIC [10]: 0.025 µg/mL (≈ 0.068 µM); MIC [11, 16]: 0.39 µg/mL (≈ 1.06 µM); MIC ([12]; N1HJJC2, 18 h): 0.0125 µg/mL (≈ 0.034 µM)
CC1Sc2c(C(=O)O)c(=O)c3cc(F)c(N4CCN(C)CC4)c(F)c3n21 (centres unmarked) [Example 4, 6,8-Difluoro-1-methyl-7-(4-methyl-1-piperazinyl)-4-oxo-[1,3]thiazeto[3,2-a]quinoline-3-carboxylic acid]	–	–	0.011 mg/mouse	0.177 mg/mouse	0.2 µg/mL (≈ 0.524 µM)	0.2 µg/mL (≈ 0.524 µM)	0.05 µg/mL (≈ 0.131 µM)	0.2 µg/mL (≈ 0.524 µM)	0.0125 µg/mL (≈ 0.0328 µM)	0.025 µg/mL (≈ 0.0655 µM)	0.05 µg/mL (≈ 0.131 µM)	MIC ([6]; S23, 18 h, Table 2, same microorganisms as Table 1): 0.39 µg/mL (≈ 1.02 µM); MIC [11, 23]: 0.39 µg/mL (≈ 1.02 µM)
O=C(O)c1c2n(c3c(F)c(N4CCNCC4)c(F)cc3c1=O)CS2 [Example 5, 6,8-Difluoro-4-oxo-7-(1-piperazinyl)-4-oxo-4H-[1,3]thiazeto[3,2-a]quinoline-3-carboxylic acid]	–	–	–	–	0.2 µg/mL (≈ 0.566 µM)	0.1 µg/mL (≈ 0.283 µM)	0.1 µg/mL (≈ 0.283 µM)	0.05 µg/mL (≈ 0.142 µM)	0.0125 µg/mL (≈ 0.0354 µM)	0.025 µg/mL (≈ 0.0708 µM)	0.025 µg/mL (≈ 0.0708 µM)	–
CN1CCN(c2c(F)cc3c(=O)c(C(=O)O)c4n(c3c2F)CS4)CC1 [Example 7, 6,8-Difluoro-7-(4-methyl-1-piperazinyl)-4-oxo-4H-[1,3]thiazeto[3,2-a]quinoline-3-carboxylic acid]	–	–	0.014 mg/mouse	0.263 mg/mouse	0.39 µg/mL (≈ 1.06 µM)	0.2 µg/mL (≈ 0.544 µM)	0.05 µg/mL (≈ 0.136 µM)	0.1 µg/mL (≈ 0.272 µM)	0.025 µg/mL (≈ 0.068 µM)	0.0125 µg/mL (≈ 0.034 µM)	0.05 µg/mL (≈ 0.136 µM)	–
NC1CCN(c2c(F)cc3c(=O)c(C(=O)O)c4n(c3c2F)CS4)C1 (centres unmarked) [Example 9, 7-(3-Amino-1-pyrrolidinyl)-6,8-difluoro-4-oxo-4H-[1,3]thiazeto[3,2-a]quinoline-3-carboxylic acid]	–	–	–	–	0.0125 µg/mL (≈ 0.0354 µM)	0.025 µg/mL (≈ 0.0708 µM)	0.1 µg/mL (≈ 0.283 µM)	0.1 µg/mL (≈ 0.283 µM)	≤ 0.00625 µg/mL	0.0125 µg/mL (≈ 0.0354 µM)	0.0125 µg/mL (≈ 0.0354 µM)	–
O=C(O)c1c2n(c3c(F)c(N4CCNCC4)c(F)cc3c1=O)C(c1ccccc1)S2 (centres unmarked) [Example 21, 6,8-Difluoro-4-oxo-1-phenyl-7-(1-piperazinyl)-4H-[1,3]thiazeto[3,2-a]quinoline-3-carboxylic acid]	–	–	–	–	0.39 µg/mL (≈ 0.908 µM)	0.2 µg/mL (≈ 0.466 µM)	0.1 µg/mL (≈ 0.233 µM)	1.56 µg/mL (≈ 3.63 µM)	0.05 µg/mL (≈ 0.116 µM)	≤ 0.00625 µg/mL	0.1 µg/mL (≈ 0.233 µM)	–
CCOC(=O)c1c2n(c3c(F)c(N4CCNCC4)c(F)cc3c1=O)C(c1ccc(F)cc1)S2 (centres unmarked) [Example 25, Ethyl 6,8-difluoro-1-(4-fluorophenyl)-4-oxo-7-(1-piperazinyl)-4H-[1,3]thiazeto[3,2-a]quinoline-3-carboxylate]	–	–	–	–	0.39 µg/mL (≈ 0.82 µM)	0.2 µg/mL (≈ 0.421 µM)	0.1 µg/mL (≈ 0.21 µM)	1.56 µg/mL (≈ 3.28 µM)	0.05 µg/mL (≈ 0.105 µM)	–	0.1 µg/mL (≈ 0.21 µM)	–
